Tests used:
Colorado potato beetle = test: Leaf-dip bioassay on potato leaves, larval mortality; assay type: in vivo; details: Leptinotarsa decemlineata, 120 h
Procedure: (§1) Potato plants for Colorado potato beetle and two-leaf cotton plants for tobacco budworm were utilized for bioassays. Excised plant leaves were dipped into 1:1 acetone/water dilutions of the active compounds. After the leaves had dried, they were individually placed onto water-moistened filter paper on the bottoms of Petri dishes. Each dish was infested with 5-7 larvae and covered with a lid. Each treatment dilution was replicated 4 times. Test dishes were held at approximately 27° C. and 60% humidity. Numbers of live and morbid larvae were assessed in each dish at 5 days after treatment application, and percent mortality was calculated.
(§2) To determine if an insecticidal mixture was synergistic, Limpel's formula was used:
(§3) E=Expected % mortality of the mixture X=% mortality of compound X, as measured independently Y=% mortality of compound Y, as measured independently
(§4) Synergism was evident if the % observed mortality for the mixture was greater than the % expected mortality.

tobacco budworm = test: Leaf-dip bioassay on cotton leaves, larval mortality; assay type: in vivo; details: Heliothis virescens, 120 h, read-out: % Mortality of Tobacco Budworm
Procedure: as §1, §2, §3, §4

[1] = read-out: % Mortality of Colorado Potato Beetle

CCN/C(=N\Nc1c(Cl)cc(C(F)(F)F)cc1Cl)C(C)(C)C [I-1, N-ethyl-2,2-dimethylpropionamide-2-(2,6-dichloro-α,α,α-trifluoro-p-tolyl)-hydrazone]
mortality at 100 ppm (Colorado potato beetle; dose rate 100 ppm, 5 days after treatment): 0%
mortality at 300 ppm (Colorado potato beetle; dose rate 300 ppm, 5 days after treatment): 20.8%
mortality at 100 ppm (tobacco budworm): 0%
mortality at 300 ppm (tobacco budworm): 16%

CCN/C(=N\Nc1c(Cl)cc(C(F)(F)F)cc1Cl)C1(C)CC1(Cl)Cl (stereo not drawn) [I-2, N-Ethyl-2,2-dichloro-1-methylcyclopropane-carboxamide-2-(2,6-dichloro-α,α,α-tri-fluoro-p-tolyl)hydrazone]
mortality at 30 ppm (Colorado potato beetle; dose rate 30 ppm, 5 days after treatment): 6.3%
mortality at 60 ppm (Colorado potato beetle; dose rate 60 ppm, 5 days after treatment): 39.6%
mortality at 60 ppm (tobacco budworm): 5.4%
mortality at 100 ppm (tobacco budworm): 12.5%

CC1(C)C(C=C(Cl)Cl)C1C(=O)OC(C#N)c1cccc(Oc2ccccc2)c1 (stereo not drawn) [alpha-cypermethrin, reference compound]
mortality at 0.03 ppm (Colorado potato beetle; [1]): 0%
mortality at 0.06 ppm (Colorado potato beetle; [1]): 4.2%
mortality at 0.03 ppm (tobacco budworm): 0%
mortality at 0.06 ppm (tobacco budworm): 8.9%

O=[N+]([O-])NC1=NCCN1Cc1ccc(Cl)nc1 [imidacloprid, reference compound]
mortality at 0.06 ppm (Colorado potato beetle; [1]): 0%
